Data on 35 compounds can be found in PubChem BioAssay (NCI).

“And” between values parts separate entries of the source, which are not always exact repeats. Equal values may be shown once.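 Five compound concentrations were applied to cells in 96-well plates for 48 hours; endpoints were derived by simple linear interpolation of the resulting dose-response curve. GI50 = concentration required for 50% inhibition of growth. TGI marks complete inhibition of growth.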

What all share (assay): inhibition of tumour cell growth, NCI panel, 48 h
Assay [1] has as its system HOP-18 NSCLC.
In assay [2] the test system is HOP-62 NSCLC.
Assay [3] has as its system SF-268 CNS.
Assay [4] has as its system SNB-19 CNS.
Assay [5] relates to SNB-78 CNS.
Assay [6] relates to TK-10 renal.
The subject of assay [7] is UACC-257 melanoma.
For assay [8], the system named is BT-549 breast.
The subject of assay [9] is HS 578T breast.
Assay [10] relates to MDA-MB-231 breast.

For the compound `CN(C)C(=S)/N=c1\ss/c(=N\S(=O)(=O)c2ccccc2)n1N(C)C`, the TGI in assay [1], in assay [2], in assay [3], in [4], in [5] and in assay [6] was > 100 µM throughout. Also, the TGI in assay [7] was > 100 µM.
Take `COC1OC2COC(c3ccccc3)OC2C(O)C1Br` (centres undefined): the TGI in assay [1], in assay [2], in assay [3], in assay [4], in assay [5] and in [6] was > 100 µM throughout. Besides, the TGI in assay [7] is > 100 µM.
With `COc1ccc2nc(NC(=O)C(=O)C(C#N)c3ccc(Cl)c(Cl)c3)sc2c1` (centres undefined), the TGI in assay [2], in assay [3], in assay [4], in [5], in [6] and in [7] was > 100 µM each time.
Regarding `O=C(O)CCSC(=O)Nc1ccc(N=Nc2ccccc2)cc1`, the TGI in [1], in assay [2], in assay [3], in [4], in [5] and in assay [6] was > 100 µM in each case. Also, in assay [7], the TGI is > 100 µM.
For the compound `CC12Oc3ccc4ccccc4c3CC1Cc1c(ccc3ccccc13)O2` (centres undefined), the TGI in assay [1] is 98.7 µM; in assay [2] it was > 100 µM; in [3] it was > 100 µM; in assay [4], > 100 µM; in [6], > 100 µM; in assay [7] it was > 100 µM.
Turning to `Cc1cccc(C(C)(C)C)c1NC(=O)CC1Sc2ccccc2NC1=O` (centres undefined), the TGI in assay [1], in [2], in [3], in [4], in assay [6] and in [7] was > 100 µM throughout.
On to `Nc1n[nH]c(CCc2nc(N)n[nH]2)n1`, for which the TGI in assay [2], in assay [3], in [4], in [5], in assay [6] and in assay [7] was > 100 µM throughout.
On to `O=C1C=CC(CC(=O)c2ccc3ccccc3c2)O1` (centres undefined), for which the TGI is > 100 µM in [1]; 36.6 µM in assay [2]; 39.9 µM in [3]; 76.8 µM in assay [4]; > 100 µM in [5]; 69.8 µM in [6]. In assay [7], the TGI was > 100 µM.
On to `Nn1c(N=Nc2c(O)[nH]c3c(Cl)cc(Cl)cc23)n[nH]c1=S`, for which the TGI in assay [1], in [2], in assay [3], in assay [4], in assay [5] and in [6] was > 100 µM in each case. Moreover, the TGI in [7] was > 100 µM.
As to `CC1=CC(=O)N(c2c(C)cccc2Cl)C(C)N1` (centres undefined), the TGI in assay [1], in assay [2], in assay [3], in assay [4], in [5] and in [6] was > 100 µM in each case. Also, in assay [7], the TGI is > 100 µM.
Regarding `O=C(O)C1=C(C(=O)Nc2ccc(NC(=O)C3=C(C(=O)O)C4C=CC3C4)cc2)C2C=CC1C2`, the TGI in [1], in assay [2], in assay [3], in [4], in assay [5] and in [6] was > 100 µM throughout. Also, in [7], the TGI was > 100 µM.
In the case of `O=C(O)c1ccccc1NC(=O)C1CCCCC1`, the TGI in [2], in assay [3], in assay [4], in assay [5], in assay [6] and in assay [7] was > 100 µM in each case.
With `O=C1C2Nc3ccccc3SC2C(=O)N1c1ccccc1C(F)(F)F` (centres undefined), the TGI in assay [1] was > 100 µM; in assay [2], > 100 µM; in assay [3], > 100 µM; in assay [4], > 100 µM; in assay [5] it was 53.6 µM; in assay [6] it was > 100 µM. Further, the TGI in assay [7] was > 100 µM.
As to `O=C(O)/C=C/C(=O)N1C/C(=C\c2ccccc2)C(=O)/C(=C/c2ccccc2)C1`, the TGI in assay [1] is 26.3 µM; in assay [2] it was 41.7 µM; in assay [3], 16.8 µM; in assay [4] it was 23.6 µM; in assay [5] it was 24.2 µM; in assay [6], 22.8 µM. Further, the TGI in assay [7] came to 15.8 µM.
`N#CC1=C(Cl)NC(Cl)=C(C#N)C1c1c(Cl)cccc1Cl`: the TGI was 91.5 µM in [1]; > 100 µM in [2]; 99.6 µM in assay [3]; > 100 µM in assay [4]; > 100 µM in [5]; > 100 µM in [6]. The compound further came in with a TGI in assay [7] of 50.3 µM.
Turning to `c1ccc2c(c1)C1=NCCN1c1ccccc1-2`, the TGI was 9.19 µM in assay [1]; 13.3 µM in assay [2]; 11 µM in assay [3]; 16.2 µM in assay [4]; 18 µM in [5]; 12 µM in [6]. In assay [7], this compound returned a TGI of 7.71 µM.
As for `O=C(Nc1ccn(CCI)c(=O)n1)c1ccccc1`, the TGI in assay [1], in assay [2], in assay [3], in assay [5], in [6] and in assay [7] was > 100 µM throughout.
Turning to `Cc1ccccc1-n1c(C)nc(-c2ccccc2)cc1=O`, the TGI in [1], in assay [2], in assay [3], in [4], in assay [5] and in assay [6] was > 100 µM each time. Moreover, the TGI in [7] is > 100 µM.
Consider `O=C1c2nc3n(c2C(=O)c2c1nc1n2CCC1)CCC3`, for which the TGI in [1] was 27.2 µM; in [2], 15.9 µM; in [3] it was 32 µM; in [4], 27.9 µM; in assay [5], 31.1 µM; in assay [6], > 77.2 µM. Moreover, the TGI in assay [7] was 5.6 µM and 5.72 µM. The GI50 in [2] was 5.19 µM; in assay [7], 2.47 µM.
With `O=C(NO)c1ccc(O)c(O)c1`, the TGI in assay [1], in assay [2], in assay [3], in assay [4], in assay [5] and in [6] was > 100 µM throughout. In assay [7], the TGI is > 100 µM.
For the compound `O=C(NS(=O)(=O)c1ccccc1)C(Cc1ccccc1)C(Cc1ccccc1)C(=O)NS(=O)(=O)c1ccccc1` (centres undefined), the TGI in assay [1], in [2], in [3], in [4], in assay [6] and in [7] was > 100 µM throughout.
Turning to `CCCCCCC(/C=N/O)C(C)(O)CCC` (centres undefined), the TGI in [2], in [3], in assay [4], in [5], in assay [6] and in [7] was > 100 µM throughout.
Consider `Cc1cccc2nc3cccc(C(=O)NCCN(C)C)c3nc12`, for which the TGI in assay [1] is 84 µM; in assay [2], 1.39 µM; in assay [3], 9.2 µM; in [4], 5.27 µM; in [5] it was 12 µM; in [6], 5.84 µM. The same compound displayed a TGI in [7] of 2.61 µM.
As for `COC1=C2CC(C)CC(OC)C(O)C(C)/C=C(\C)C(OC(N)=O)C(OC)/C=C\C=C(/C)C(=O)NC(=C(/C=N/N3CCCCC3)C1=O)C2=O` (centres undefined), the TGI worked out at 27.2 µM in assay [1]; 44.5 µM in assay [2]; 25.1 µM in [3]; 41.9 µM in assay [4]; 48.3 µM in assay [5]; 72.1 µM in assay [6]. Besides, the TGI in assay [7] worked out at 27.7 µM.
On to `COC(=O)CCC(=O)NC1C2CC3CC(C2)CC1C3` (centres undefined), for which the TGI in assay [1], in assay [2], in assay [3], in assay [4], in [6] and in [7] was > 100 µM each time.
As to `C[C@H]1C(=O)CC[C@]2(C)CCC(C(C)(C)O)CC12O` (some centres undefined), the TGI in assay [1], in [2], in assay [3], in assay [4], in [5] and in assay [6] was > 100 µM in each case. Besides, the TGI in assay [7] is > 100 µM.
Consider `O=[N+]([O-])c1ccc(Cl)cc1C1SCc2nc3ccccc3n21` (centres undefined), for which the TGI in assay [1], in [2], in assay [3], in assay [4], in assay [5] and in [6] was > 100 µM each time. Also, the TGI in [7] was > 100 µM.
In the case of `[Cl][Cd][Cl]`, the TGI in [8] was 2.07 µM and 17.6 µM; in assay [1], > 62.1 µM; in assay [2], 93.1 µM; in assay [9] it was 57.4 µM; in assay [10], 53.9 µM; in assay [3] it was 33.9 µM and 24.4 µM. The TGI was > 61 µM and 146 µM in assay [4]; 56.9 µM in [5]; 192 µM in [6]; 56.2 µM and 74.9 µM in assay [7]. In addition, the GI50 in [1] is > 42.3 µM; in assay [2], 39.7 µM; in assay [9], 10.1 µM; in assay [10], 16.5 µM; in assay [3], 16.5 µM and 8.95 µM; in assay [4] it was > 44.1 µM and 49.9 µM. Further, the GI50 in [5] was 21.3 µM; in assay [6] it was 90.5 µM; in assay [7] it was 22 µM and 27 µM.
For the compound `COc1ccc2c(c1OC)C(=O)c1cnccc1C2=O`, the TGI in [1], in assay [2], in [4], in assay [5], in assay [6] and in [7] was > 100 µM throughout.
As for `CCC(Oc1ccc(OC)c2ccccc(=O)c12)C(=O)O` (centres undefined), the TGI in assay [2], in [3], in assay [4], in [5], in assay [6] and in assay [7] was > 100 µM throughout.
For the compound `O=C(/C=C1/Nc2ccc([N+](=O)[O-])cc2NC1O)c1cccc([N+](=O)[O-])c1` (centres undefined), the TGI is > 100 µM in [2]; > 100 µM in assay [3]; > 100 µM in [4]; > 100 µM in [5]; 88.4 µM in assay [6]; > 100 µM in assay [7].
With `CN1CC(=O)N(C)c2nc[nH]c2C1=O`, the TGI in [1], in assay [3], in assay [4], in [5] and in assay [6] was > 100 µM throughout.
`O=C1NC(=O)C2C1N(Cc1ccccc1)C(=O)N2Cc1ccccc1` (centres undefined): the TGI in [2], in assay [3], in [4], in assay [5], in [6] and in assay [7] was > 100 µM in each case.
For `CC(=O)Oc1ccc(C(c2ccc(OC(C)=O)cc2)c2ccccn2)cc1`, the GI50 was 0.313 µM in assay [8]; > 58.3 µM in assay [2]; 48 µM in assay [10]; > 87.9 µM in [3]; > 59.7 µM in assay [6]. The TGI in assay [1] is > 100 µM; in [2] it was > 100 µM; in [9] it was 0.677 µM and 0.638 µM; in assay [10], > 100 µM; in assay [3], > 100 µM; in assay [4], > 100 µM. Moreover, the TGI in assay [6] and in assay [7] was > 100 µM throughout.
With `COc1ccc(Nc2c3ccccc3nc3[nH]c4ccccc4c23)cc1`, the GI50 in assay [8] is 13.7 µM; in assay [2], 8.71 µM; in assay [9], 21 µM; in [10] it was 14.5 µM; in assay [3] it was 17.2 µM; in assay [4], 25.5 µM. Further, the GI50 was 26.7 µM in assay [6] and 21.2 µM in [7]. Besides, the TGI in [8] is > 50 µM; in assay [2] it was 23.2 µM; in assay [9], > 50 µM; in assay [10] it was > 50 µM; in assay [3], > 50 µM; in assay [4], > 50 µM. Moreover, the TGI in assay [6] and in assay [7] was > 50 µM each time.
